Literature values as cited in patent publication US20230129262A1, “METHODS AND PHARMACEUTICAL COMPOSITIONS OF THROMBOXANE A2 RECEPTOR ANTAGONIST FOR THE TREATMENT OF COVID-19” (priority 2020, published 2023).
Read-outs that look alike come from different tables or passages of the source.

Tests used:
[1] = system: TP receptor; settings: TP receptor blockade, several cited studies
[2] = target: T1, TP receptors (Rattus norvegicus, UniProt P34978); settings: infusion of the TxA2 mimetic, preclinical studies (Bertolino, Valentin et al. 1995)
T1 sequence (P34978 1-341): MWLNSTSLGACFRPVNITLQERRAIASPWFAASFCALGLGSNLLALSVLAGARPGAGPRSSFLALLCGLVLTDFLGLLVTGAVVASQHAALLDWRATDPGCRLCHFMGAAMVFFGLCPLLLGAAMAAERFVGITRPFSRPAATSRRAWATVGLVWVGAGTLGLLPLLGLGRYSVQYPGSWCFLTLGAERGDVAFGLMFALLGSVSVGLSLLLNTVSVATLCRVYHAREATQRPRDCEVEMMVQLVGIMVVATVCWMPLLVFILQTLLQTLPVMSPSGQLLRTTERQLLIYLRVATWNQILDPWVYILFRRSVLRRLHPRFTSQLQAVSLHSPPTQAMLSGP

[3] = system: platelet activation; settings: Tarantino, Amadio et al. 2016
[4] = target: T2, TP receptor (Mus musculus, UniProt P30987); settings: bleomycin model of pulmonary fibrosis (Suzuki, Kropski et al. 2021)
T2 sequence (P30987 1-341): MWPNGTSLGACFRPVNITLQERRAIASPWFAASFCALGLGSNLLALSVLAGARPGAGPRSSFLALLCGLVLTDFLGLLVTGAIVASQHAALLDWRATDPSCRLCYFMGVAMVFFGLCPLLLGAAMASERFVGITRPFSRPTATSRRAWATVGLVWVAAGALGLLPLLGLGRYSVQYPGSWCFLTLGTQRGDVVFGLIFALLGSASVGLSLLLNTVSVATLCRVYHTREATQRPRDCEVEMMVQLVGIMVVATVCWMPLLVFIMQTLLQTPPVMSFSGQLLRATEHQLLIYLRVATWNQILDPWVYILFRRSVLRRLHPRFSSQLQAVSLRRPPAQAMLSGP

[5] = target: T2, TP receptor; settings: model of Duchenne muscular dystrophy (West, Galindo et al. 2019)
[6] = target: T3, TP receptor (Homo sapiens, UniProt P21731); settings: patients with acute lung injury; by selectively relaxing pulmonary veins and decreasing post-capillary resistance (Schuster, Kozlowski et al. 2001)
T3 sequence (P21731 1-343): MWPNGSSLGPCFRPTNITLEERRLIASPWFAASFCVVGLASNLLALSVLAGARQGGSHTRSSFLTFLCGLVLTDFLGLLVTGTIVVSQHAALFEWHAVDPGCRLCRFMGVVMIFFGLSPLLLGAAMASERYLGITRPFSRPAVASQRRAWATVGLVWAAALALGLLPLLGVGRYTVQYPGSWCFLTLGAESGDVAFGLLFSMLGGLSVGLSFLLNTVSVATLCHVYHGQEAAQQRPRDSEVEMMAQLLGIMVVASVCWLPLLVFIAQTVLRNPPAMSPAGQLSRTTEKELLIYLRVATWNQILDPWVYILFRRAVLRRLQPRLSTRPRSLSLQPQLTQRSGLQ

[7] = target: T2, TP receptor; settings: pressure-overload model of pulmonary arterial hypertension (West, Voss et al. 2016)
[8] = target: T2, TP receptor; settings: chronic hypoxia in mice, potentiated in COX-2 knock-out mice (Cathcart, Tamosiuniene et al. 2008)
[9] = system: TP receptor

C[C@H](c1ccccc1)[C@@H](O)/C=C/[C@@H]1[C@H](C/C=C\CCCC(=O)O)[C@H]2CC[C@@H]1O2 [SQ28668]
lung injury-associated pulmonary hypertension, hypoxemia, and pulmonary edema [1]: inhibited

CCCCCCC(=O)NCC(=O)NC[C@H]1[C@@H](C/C=C\CCCC(=O)O)[C@@H]2CC[C@H]1O2 [SQ30741]
lung injury-associated pulmonary hypertension, hypoxemia, and pulmonary edema [1]: inhibited

CCCCC[C@H](O)/C=C/[C@@H]1[C@@H](C/C=C\CCCC(=O)O)[C@H]2CO[C@@H]1C2 [U-16,619, 9,11-dideoxy-9α, 11α-methanoepoxy prostaglandin F2α]
plasma fluid and protein accumulation in the lung [2]: strongly increased

CC(=O)Oc1ccccc1C(=O)O [aspirin, acetylsalicylic acid]
mortality (high-dose aspirin (1,000 mg/day), compared to propensity score matched COVID-19 controls (Liu, Huang et al. 2021)): reduced
risk of mechanical ventilation, ICU admission, and in-hospital mortality (low-dose aspirin use, hospitalized COVID-19 patients (Chow, Khanna et al. 2021)): decreased risk
platelet activation in venous thrombosis [3]: prevents

CCCCCNC(=O)c1coc([C@H]2[C@@H](Cc3ccccc3CCC(=O)O)[C@@H]3CC[C@H]2O3)n1 [ifetroban, 3-[2-[[(1S,2R,3S,4R)-3-[4-(pentylcarbamoyl)-1,3-oxazol-2-yl]-7-oxabicyclo[2.2.1]heptan-2-yl]methyl]phenyl]propanoic acid]
development of fibrosis [4]: blocked
cardiac function [5]: improves
right ventricular fibrosis [5]: dramatically decreases
pulmonary capillary pressure [6]: reduced
cardiac function [7]: improves
right ventricular fibrosis [7]: dramatically decreases
lung injury-associated pulmonary hypertension, hypoxemia, and pulmonary edema [1]: inhibited
pulmonary hypertension and pulmonary intravascular thrombosis [8]: prevented
arterial and tissue oxygenation ([9]; compared with septic controls (Quinn and Slotman 1999)): significantly increased
systemic and pulmonary vasoconstriction ([9]; sepsis animal model (Quinn and Slotman 1999)): ameliorated
